Source: patent US5527900A, “N3-alkyl-2',5'-0-silylated-3'-spiro-thymidine derivatives” (Stitching Rega VZW, priority 1991, dated 1996)
≈ marks a conversion by molar mass, not a printed value. Like-named read-outs stand apart in the source and are kept apart here.

Assays:
[1] = Partition coefficient (Pa) between 1-octanol and 10 mM potassium phosphate buffer; assay type: physicochemical; details: 1-octanol / 10 mM potassium phosphate buffer, pH 7.5, 50 μM
Description: Partition of the test compounds between 1-octanol (Merck, Darmstadt, Germany) and 10 mM potassium phosphate buffer, pH, 7.5 (Merck), was measured as described in Balzarini et al., Biochem, Biophys. Res. Commun. 158: 413-422 (1989). Briefly, a 50 μM concentration of the test compound in potassium phosphate buffer was thoroughly mixed with an equal volume of 1-octanol for 30 min at room temperature. Then, the mixture was further equilibrated at room temperature and UV absorption was measured for the aqueous and alcoholic liquid phases. The partition coefficient (Pa) was calculated as the ratio of the compound concentration present in the 1-octanol phase to the compound concentration present in the aqueous phase.

[2] = AIDS patients; cited from earlier work
[3] = tested on: HIV-1; assay: Antiviral activity upon delayed addition to HIV-1-infected MT-4 cells; assay type: cell-based; details: for antiviral activity on delayed addition: addition delayed by 41 to 48 hours
Description: (§1) In order to evaluate the inhibitory effects against retrovirus-induced cytopathogenicity in MT-4cells, said cells (5×10^5 cells/ml) were suspended in fresh culture medium and infected with HIV-1, HIV-2 or SIOV at 100 times the cell culture infective dose-50 (CCID50) per ml cell suspension (1 CCID50 being the dose infective for 50% of the cell cultures). Then, 100 μl of the infected cell suspension were transferred to microplate wells, mixed with 100 μl of the appropriate dilutions of the test compounds, and further incubated at 37° C. After 5 days, the number of viable cells was determined in a blood cell-counting chamber by trypan blue staining for both virus-infected and mock-infected cell cultures.
Mt-4 cells were suspended in culture medium, infected with HIV-1 and brought into microplate wells as described above. […] After 5 days, the number of viable cells was determined and the EC50 and CC50 values for the test compounds were defined as described in example 1.

[4] = tested on: MT-4 cells; assay: Cytotoxicity for MT-4 cells depending on exposure time; assay type: cell-based
Description: The toxicity of test compounds upon a 2-hr incubation period was determined by exposing MT-4 cells (3.5×10^5 cells/ml) to 100, 20, 4, 0.8 or 0.16 μg/ml of the test compounds for 2 hours at 37° C. Subsequently the cells were washed with culture medium. The pretreated cells were seeded in microplate wells at 70×10^3 cells/200 μl-well and allowed to grow for 3 days at 37° C. Control cultures received similar concentrations of the test compounds during the whole incubation period. Then, cells were counted in a Coulter counter (Harpenden Hertz, England) and the CC50 values were determined for each compound.
Mt-4 cells were suspended in culture medium, infected with HIV-1 and brought into microplate wells as described above.

[5] = tested on: MT-4 cell DNA synthesis; assay: Incorporation of radiolabeled precursors into MT-4 cell DNA; assay type: cell-based; details: Homo sapiens
Excerpt: (§2) The radiolabeled nucleosides [methyl-^3 H]dThd (specific radioactivity: 40 Ci/mmol), [5-^3 H]dUrd (specific radioactivity: 27 Ci/mmol), [5-^3 H]dCyc (specific radioactivity: 18.2 Ci/mmol) and the radiolabeled amino acid L-[4,5-^3 H]leucine (specific radioactivity: 52 Ci/mmol were derived from the Radiochemcial Centre (Amersham, England); [5-^3 H]Urd (specific radioactivity: 21 Ci/mmol) and [5-^3 H]Cyd (specific radioactivity: 21 Ci/mmol) and were obtained from Moravek Biochemicals Inc. (Brea, Calif.)
(§3) The incorporation of [methyl-^3 H]dThd, [5-^3 H]dUrd, [5-^3 H]dCyd, [5-^3 H]Urd, [5-^3 H]Cyd and L-[4,5-^3 H]1eu into TCA-insoluble MT-4 cell material was measured in wells of a 96-well microtiter plate (Falcon-3072, Becton-Dickinson, New Jersey). To each well were added 10^5 MT-4 cells, 0.25 μCi of the radiolabeled precursor and a given amount of test compound. The cells were allowed to proliferate for 20 to 24 hr at 37° C. in a humidified, CO2 -controlled atmosphere. At the end of this incubation period, the contents of the wells (200 μl) were brought onto 25-mm glass fiber filters (type A/E, Gelman Instrument Company, Ann Arbor, Mich.), and mounted on a Millipore 3025 sampling manifold apparatus. The filters were washed twice with 2 ml and 5 ml cold NaCl/Pi (phosphte-buffered saline), twice with 2 and 5 ml cold 10% trichloroacetic acid (TCA), twice with 5 and 7.5 ml cold 5% TCA, and twice with 1 ml cold ethanol.

[6] = Cytotoxicity for mock-infected MT-4 cells; details: human, mt-4 cells
Description: as §1

[7] = tested on: MT-4 cells; assay: Cytotoxicity for mock-infected MT-4 cells; details: at 100 μg/ml
Description: as §1

[8] = tested on: MT-4 cell RNA synthesis; assay: Incorporation of radiolabeled precursors into MT-4 cell RNA; assay type: cell-based; details: Homo sapiens
Excerpt: as §2, §3

[9] = tested on: HIV-1 mutant strains; assay: Resistance of HIV-1 strains selected against compounds 5, 6 and 7; assay type: cell-based
[10] = tested on: MT-4 cell protein synthesis; assay: Incorporation of radiolabeled leucine into MT-4 cell protein; assay type: cell-based; details: Homo sapiens, MT4, read-out: IC50, L-[4,5-3H]leucine incorporation
Excerpt: as §2, §3

[11] = biological target: reverse transcriptase enzyme of the TSAO-resistant HIV-1 strains (HIV-1 M:B_HXB2R, UniProt P04585, E725K); assay type: binding; details: Glu-138 to Lys

Row | Structure (SMILES) | partition coefficient (Pa) ([1]; room temperature) | toxic side effects on long-term treatment [2] | antiviral activity on delayed addition [3] | cytostatic activity depending on exposure time ([4]; data not shown) | IC50 ([5]; MT4, read-out: IC50, [5-3H]dCyd incorporation) [µg/mL] | IC50 ([5]; MT4, read-out: IC50, [5-3H]dUrd incorporation) [µg/mL] | IC50 ([5]; MT4, read-out: IC50, [methyl-3H]dThd incorporation) [µg/mL] | presence in the n-octanol phase compared to the aqueous phase [1] | logD at 50 µM ([1]; room temperature) | CC50 at 120 h [6] [µg/mL] | cytotoxicity to MT-4 cells (in words) [7] | IC50 ([8]; MT4, read-out: IC50, [5-3H]Cyd incorporation) [µg/mL] | IC50 ([8]; MT4, read-out: IC50, [5-3H]Urd incorporation) [µg/mL] | decrease of antiviral activity on delayed addition ([3]; addition delayed by 17-24 hours, data not shown) [fold] | toxicity for MT-4 cells depending on contact time ([4]; time of contact with the cells varied) | amino acid change in reverse transcriptase of HIV-1 strains selected for resistance [9] | IC50 [10] [µg/mL] | affinity of mutated reverse transcriptase [11]
1 | Cc1cn([C@H]2C[C@H](N=[N+]=[N-])[C@@H](CO)O2)c(=O)[nH]c1=O [AZT, 3'-Azido-3'-deoxythymidine, reference compound] | 1.12 | bone marrow suppression | almost totally lost | less cytostatic the shorter its exposure time to MT-4 cells |  |  |  |  |  |  |  |  |  |  |  |  |  | 
2 | Cc1cn([C@@H]2O[C@H](CO[Si](C)(C)C(C)(C)C)[C@@]3(OS(=O)(=O)C=C3N)[C@H]2O[Si](C)(C)C(C)(C)C)c(=O)[nH]c1=O [Compound 5, {1-[2', 5'-Bis-O-(tert-butyldimethylsilyl)-β-D-ribofuranosyl]thymine}-3'-spiro-5"-{4"-amino-1",2"-oxathiole-2", 2"-dioxide}] |  |  | almost totally lost |  | 115 (≈ 195 µM) | 9.1 (≈ 15.4 µM) | 13 (≈ 22 µM) | more than 95% | > 1.3 | 7.7 (≈ 13.1 µM) | not cytotoxic | 8 (≈ 13.6 µM) | 11 (≈ 18.6 µM) | 10 | not affected by the time that the compound had remained in contact with the cells | glutamic acid change at position 138 to lysine | 11.6 (≈ 19.7 µM) | 
3 | Cc1ccnc2c1NC(=O)c1cccnc1N2C1CC1 [Nevirapine, reference compound] |  |  |  |  |  |  |  |  |  |  |  |  |  |  |  |  |  | not for other HIV-1-specific compounds
